Values belong to the compound of their own block, whether it stands above or below them.
Tests used:
Test in all cases: competitive isoTOP-ABPP
[1] = biological target: T1, ABCE1 ATP-binding cassette sub-family E member 1 (Homo sapiens, UniProt P61221); details: for isoTOP-ABPP ratio, lysine P61221_K191 / isoTOP-ABPP ratio, lysine P61221_K478: 50 uM_231_sol_in vitro; for isoTOP-ABPP ratio (R) at liganded lysine P61221_K191 / isoTOP-ABPP ratio (R) at liganded lysine P61221_K478: sol, 231
T1 construct: isoTOP-ABPP experiments performed in cell lysates (in vitro); endogenous in cells; host or cells: soluble proteome of human cancer cell lines (MDA-MB-231, Ramos, Jurkat)
Protocol: (§1) In vitro covalent fragment treatment for isoTOP-ABPP. All compounds were made up as solutions in DMSO (100×) and were used at a final concentration of 50 μM for activated esters and 100 μM for guanidinylating agents. For each profiling sample, 0.5 ml of lysate was treated with 5 μl of the 100× compound stock solution or 5 μl of DMSO. Samples were treated with activated esters for
(§2) STP-alkyne labeling and click chemistry. For concentration-dependent reactivity measurements by isoTOP-ABPP, 0.5 ml proteome aliquots were treated at ambient temperature with 1 mM STP-alkyne 1 (5 μl of 100 mM stock in DMSO) and 0.1 mM STP alkyne 1 (5 μl of 10 mM stock in DMSO), respectively. For competitive isoTOP-ABPP, after in vitro fragment treatment (detailed above), the samples were labeled for 1 h at ambient temperature with 0.1 mM STP-alkyne 1 (5 μl of 10 mM stock in DMSO). Samples were conjugated by copper-mediated azide-alkyne cycloaddition (CuAAC) to either the light (1 mM STP-alkyne or fragment treated) or heavy (0.1 mM STP-alkyne or DMSO treated) TEV tags (10 μl of 5 mM stocks in DMSO, final concentration=100 μM) using tris(2-carboxyethyl)phosphine hydrochloride
(§3) R value calculation and processing. The ratios of light and heavy MS1 peaks for each unique peptide were quantified with a CIMAGE software using default parameters (3 MS1 acquisitions per peak and signal to noise threshold set to 2.5). For reactivity measurements by isoTOP-ABPP, the R value was calculated from the ratio of MS1 peak areas, comparing the 1 mM STP alkyne sample (light TEV tag) with the 0.1 mM STP alkyne sample (heavy TEV tag). For competitive isoTOP-ABPP, the R value was calculated from the ratio of MS1 peak areas, comparing the DMSO treated sample (heavy TEV tag) with the compound treated sample (light TEV tag). […] Ratios for unique peptide entries are calculated for each experiment; overlapping peptides with the same modified lysine (for example, different charge states, MudPIT chromatographic steps or tryptic termini) are grouped together and the median ratio is reported as the final ratio (R). The peptide ratios reported by CIMAGE were further filtered to ensure the removal or correction of low-quality ratios in each individual data set. The quality filters applied were the following: removal of half tryptic peptides; for ratios with high standard deviations from the median (90% of the median or above) the lowest ratio was taken instead of the median; removal of peptides with R=20 and only a single MS2 event triggered during the elution of the parent ion; manual annotation of all the peptides with ratios of 20, removing any peptides with low quality elution profiles that remained after the previous curation steps (only done for competitive isoTOP-ABPP).
(§4) Cross-data processing for fragment screening. For compound treated samples, biological replicates of the same condition were averaged, if the standard deviation was below 60% of the mean; otherwise, for lysines with at least one R value <4 for a particular compound, the lowest value of the ratio set was taken. For lysines, where all R values for a particular compound were ≥4, the average was reported. For peptides containing several possible modified lysines, the lysine with the highest number of quantification events was used for analysis and the remaining, redundant peptides were reported as alternative modification sites. Peptides included in the aggregate dataset (those used for further bioinformatics and statistical analyses) were required to have been quantified in 2 experiments for competitive isoTOP-ABPP. Lysines were categorized as liganded, if they had at least one ratio R≥4 (hit fragments). For liganded lysines with R=20 for all liganding events, lysines were required to have been quantified with R=20 in two separate experiments and were further required to have been quantified with R<20 in one additional experiment.

[2] = biological target: T2, AGFG1 Arf-GAP domain and FG repeat-containing protein 1 (Homo sapiens, UniProt P52594); format: binding; set-up: key to isoTOP-ABPP reactivity ratio at lysine P52594_K134: R = MS1 peak area ratio, DMSO (heavy) / compound-treated (light); details: for isoTOP-ABPP ratio (R) at liganded lysine P52594_K134: sol, 231
T2 construct: isoTOP-ABPP experiments performed in cell lysates (in vitro); endogenous in cells; host or cells: soluble proteome of human cancer cell lines (MDA-MB-231, Ramos, Jurkat)
T2 sequence (P52594 1-562): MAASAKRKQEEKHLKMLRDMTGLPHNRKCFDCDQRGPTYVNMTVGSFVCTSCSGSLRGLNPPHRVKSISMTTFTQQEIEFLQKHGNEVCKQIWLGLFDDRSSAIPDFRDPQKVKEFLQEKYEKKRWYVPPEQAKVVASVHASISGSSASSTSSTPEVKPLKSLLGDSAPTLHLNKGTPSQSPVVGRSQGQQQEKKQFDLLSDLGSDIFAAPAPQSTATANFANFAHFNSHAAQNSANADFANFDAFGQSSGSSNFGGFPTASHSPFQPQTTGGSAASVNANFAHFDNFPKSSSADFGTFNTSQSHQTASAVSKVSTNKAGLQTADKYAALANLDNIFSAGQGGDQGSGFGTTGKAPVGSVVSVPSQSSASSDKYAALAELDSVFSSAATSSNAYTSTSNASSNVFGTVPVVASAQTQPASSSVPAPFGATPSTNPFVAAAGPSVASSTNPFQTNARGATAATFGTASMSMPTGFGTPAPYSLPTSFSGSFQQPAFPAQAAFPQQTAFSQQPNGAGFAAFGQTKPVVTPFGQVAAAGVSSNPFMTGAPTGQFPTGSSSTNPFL
Protocol: as §1, §2, §3, §4

[3] = biological target: T3, HDHD3 Haloacid dehalogenase-like hydrolase domain-containing protein 3 (Homo sapiens, UniProt Q9BSH5); format: binding; set-up: key to isoTOP-ABPP reactivity ratio at lysine Q9BSH5_K15: R = MS1 peak area ratio, DMSO (heavy) / compound-treated (light); details: for isoTOP-ABPP ratio, lysine Q9BSH5_K15: 50 uM_231_sol_in vitro; for R value (DMSO/fragment) for probe 1 labeling: Q9BSH5_K15; for isoTOP-ABPP ratio (R) at liganded lysine Q9BSH5_K15: sol, 231
T3 construct: isoTOP-ABPP experiments performed in cell lysates (in vitro); endogenous in cells; host or cells: soluble proteome of human cancer cell lines (MDA-MB-231; Ramos and Jurkat also prepared)
T3 sequence (Q9BSH5 1-251): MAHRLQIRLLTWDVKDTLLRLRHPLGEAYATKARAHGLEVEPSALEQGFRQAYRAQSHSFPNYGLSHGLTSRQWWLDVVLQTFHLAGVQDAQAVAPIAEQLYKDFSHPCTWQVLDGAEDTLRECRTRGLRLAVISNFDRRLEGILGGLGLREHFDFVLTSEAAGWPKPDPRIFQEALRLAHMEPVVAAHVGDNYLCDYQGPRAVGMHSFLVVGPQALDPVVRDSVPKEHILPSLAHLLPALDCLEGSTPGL
Protocol: as §1, §2, §3, §4

[4] = P61221_K191, 50 uM, 231 sol, in vitro

isoTOP-ABPP ratio, lysine P61221_K191 [1]: 1.0
isoTOP-ABPP ratio, lysine P61221_K478 [1]: 1.1
isoTOP-ABPP ratio, lysine P52594_K134 ([2]; 50 uM_231_sol_in vitro): 1.0
isoTOP-ABPP ratio, lysine Q9BSH5_K15 [3]: 1.0
SMILES: O=C(Oc1c(F)c(F)cc(F)c1F)c1cc(C(F)(F)F)cc(C(F)(F)F)c1 [fragment 48, 2,3,5,6-Tetrafluorophenyl 3,5-bis(trifluoromethyl)benzoate]

R value (DMSO/fragment) for probe 1 labeling [1, 4]: 0.9
R value (DMSO/fragment) for probe 1 labeling ([1]; P61221_K478, 50 uM, 231 sol, in vitro): 1.1
R value (DMSO/fragment) for probe 1 labeling ([2]; P52594_K134, 50 uM, 231 sol, in vitro): 1.0
R value (DMSO/fragment) for probe 1 labeling ([3]; 50 uM, 231 sol, in vitro): 20.0
SMILES: O=C(CCc1cn(-c2ccccc2)nc1-c1ccccc1)Oc1c(F)c(F)c(F)c(F)c1F [fragment 19, Pentafluorophenyl 3-(1,3-diphenyl-1H-pyrazol-4-yl)propanoate]

SMILES: O=C(Oc1ccc([N+](=O)[O-])cc1[N+](=O)[O-])C(c1ccccc1)(c1ccccc1)c1ccccc1 [fragment 42, 2,4-Dinitrophenyl 2,2,2-triphenylacetate]
isoTOP-ABPP ratio (R) at liganded lysine P61221_K191 ([1]; 50 uM, in vitro): 1.0
isoTOP-ABPP ratio (R) at liganded lysine P61221_K478 ([1]; 50 uM, in vitro): 1.1
isoTOP-ABPP ratio (R) at liganded lysine P52594_K134 ([2]; 50 uM, in vitro): 1.0
isoTOP-ABPP ratio (R) at liganded lysine Q9BSH5_K15 ([3]; 50 uM, in vitro): 0.9

R value (DMSO/fragment) for probe 1 labeling [1, 4]: 1.0
R value (DMSO/fragment) for probe 1 labeling ([3]; 50 uM, 231 sol, in vitro): 1.0
SMILES: O=C(Oc1c(F)c(F)c(F)c(F)c1F)c1cc(C(F)(F)F)cc(C(F)(F)F)c1 [fragment 21, Pentafluorophenyl 3,5-bis(trifluoromethyl)benzoate]

SMILES: CC(C)(C)OC(=O)NCCCC(=O)Oc1ccc([N+](=O)[O-])cc1[N+](=O)[O-] [fragment 41, 2,4-Dinitrophenyl 4-((tert-butoxycarbonyl)amino)butanoate]
isoTOP-ABPP ratio (R) at liganded lysine P61221_K191 ([1]; 50 uM, in vitro): 1.2
isoTOP-ABPP ratio (R) at liganded lysine P61221_K478 ([1]; 50 uM, in vitro): 1.3
isoTOP-ABPP ratio (R) at liganded lysine P52594_K134 ([2]; 50 uM, in vitro): 20.0
isoTOP-ABPP ratio (R) at liganded lysine Q9BSH5_K15 ([3]; 50 uM, in vitro): 2.8

isoTOP-ABPP ratio, lysine P61221_K191 [1]: 1.7
isoTOP-ABPP ratio, lysine P61221_K478 [1]: 1.4
isoTOP-ABPP ratio, lysine Q9BSH5_K15 [3]: 0.9
SMILES: O=C(Oc1c(F)c(F)c(C(F)(F)F)c(F)c1F)c1cc(C(F)(F)F)cc(C(F)(F)F)c1 [fragment 47, 2,3,5,6-Tetrafluoro-4-(trifluoromethyl)phenyl 3,5-bis(trifluoromethyl)benzoate]

SMILES: O=C(Oc1ccc([N+](=O)[O-])cc1[N+](=O)[O-])C1CCN(C(=O)OCc2ccccc2)CC1 [fragment 34, 1-Benzyl 4-(2,4-dinitrophenyl) piperidine-1,4-dicarboxylate]
isoTOP-ABPP ratio (R) at liganded lysine P61221_K191 ([1]; 50 uM, in vitro): 1.0
isoTOP-ABPP ratio (R) at liganded lysine P61221_K478 ([1]; 50 uM, in vitro): 1.2
isoTOP-ABPP ratio (R) at liganded lysine P52594_K134 ([2]; 50 uM, in vitro): 20.0
isoTOP-ABPP ratio (R) at liganded lysine Q9BSH5_K15 ([3]; 50 uM, in vitro): 4.1

SMILES: O=C(CCc1cn(-c2ccccc2)nc1-c1ccccc1)Oc1ccc([N+](=O)[O-])cc1[N+](=O)[O-] [fragment 29, 2,4-Dinitrophenyl 3-(1,3-diphenyl-1H-pyrazol-4-yl)propanoate]
isoTOP-ABPP reactivity ratio at lysine P61221_K191 ([1]; 50 uM, 231 sol, in vitro): 1.0
isoTOP-ABPP reactivity ratio at lysine P61221_K478 ([1]; 50 uM, 231 sol, in vitro): 1.2
isoTOP-ABPP reactivity ratio at lysine P52594_K134 ([2]; 50 uM, 231 sol, in vitro): 1.4
isoTOP-ABPP reactivity ratio at lysine Q9BSH5_K15 ([3]; 50 uM, 231 sol, in vitro): 20.0
